Test results from US9724383B2, “Stabilized trimeric HIV-1 GP41 fusion inhibitor polypeptides comprising the N-terminal heptad repeat (NHR) and foldon (FD) trimerization motif” (New York Blood Center, Inc., priority 2009, dated 2017).
Entries after “also recorded” stand apart in the source; their conditions may differ. Like-named read-outs stand apart in the source and are kept apart here. Peptide text beside a SMILES is read from it.

Columns and labels:
CHR-peptide C34 = CHR-peptide C34 (Human immunodeficiency virus type 1 group M subtype B, UniProt P04578); assay type: binding, HIV-1; conditions: CD spectroscopy
Protocol: (§1) All the N-peptides were diluted in ddH2O (pH 7.0) and all the C-peptides or the mixture of the N- and C-peptides were diluted in 50 mM sodium phosphate and 150 mM NaCl (PBS, pH 7.2) to a final concentration of 10 μM. The individual peptides and their mixtures were incubated in a 37° C. water bath for 0.5 h before testing. […] The α-helicity was calculated from the CD signal by dividing the mean residue ellipticity at 222 nm by the value expected for 100% helix formation (i.e., 33,000° cm^2 dmol^−1) according to previous studies. Thermal denaturation of the samples was monitored at 222 nm by applying a temperature gradient from 20° C. to 98° C. with a 2-degree interval, an equilibration time of 1.5 min, and an averaging time of 60 s. The midpoint of the thermal unfolding transition (Tm) values was calculated using Jasco software utilities as described previously.

[1] = test system: HIV-1IIIB (subtype B, X4)
Protocol: (§2) In brief, 1×10^4 MT-2 cells were infected with HIV-1IIIB in 200 μl RPMI 1640 medium containing 10% FBS in the presence or absence of testing compounds at graded concentrations overnight. Then the culture supernatants were removed and fresh media containing no testing compounds were added. On the fourth day post-infection, 100 μl of culture supernatants were collected from each well, mixed with equal volumes of 5% Triton X-100 and assayed for p24 antigen, which was quantitated by ELISA. Briefly, wells of polystyrene plates (Immulon 1B, Dynex Technology, Chantilly, Va.) were coated with HIV immunoglobulin (HIVIG), which was prepared from plasma of HIV-seropositive donors with high neutralizing titers against HIV-1IIIB, in 0.085 M carbonate-bicarbonate buffer (pH 9.6) at 4° C. overnight, followed by washes with washing buffer (0.01M PBS containing 0.05% Tween-20) and blocking with PBS containing 1% dry fat-free milk (Bio-Rad Inc., Hercules, Calif.). Virus lysates were added to the wells and incubated at 37° C. for 1 h. […] Reactions were terminated by addition of 1N H2SO4. Absorbance at 450 nm was recorded in an ELISA reader (Ultra 386, TECAN, Research Triangle Park, NC). Recombinant protein p24 purchased from US Biological (Swampscott, Mass.) was included for establishing standard dose response curves. […] The percentage of inhibition of p24 production was calculated as previously described.

[2] = SDS-PAGE analysis of trimer stability; assay type: physicochemical; conditions: 2% SDS sample buffer, room temperature or boiled 5 min
Protocol: Purified N36Fd and N28Fd were analyzed by SDS-PAGE. […] The sample was boiled for 5 min or kept at room temperature (RT) before loading onto a 10-20% Tricine-Glycine gel (Invitrogen). The electrophoresis was conducted in SDS-PAGE running buffer with 125V constant voltage at 4° C. The gels were stained with SimplyBlue SafeStain (Invitrogen).

Proteinase K = target: T1, Proteinase K (Parengyodontium album, UniProt P06873); experiment: Proteinase K digestion, residual peptide by direct ELISA; assay type: in vitro ADME; conditions: 1 μU/ml Proteinase K in PBS, 37° C.
T1 construct: purchased Sigma
Excerpt: T20 was used as a control. […] Samples were collected at different times and centrifuged immediately.

[3] = CD spectroscopy of secondary structure (α-helicity) of the individual peptides; assay type: physicochemical; conditions: CD at 222 nm, 10 μM, ddH2O pH 7.0; spectrum of free Fd subtracted
Protocol: as §1

[4] = test system: HIV-1 93IN101 (subtype C, R5); assay type: cell-based
Protocol: For inhibition of infection by the primary HIV-1 isolate 93IN101 (subtype C, R5), the peripheral blood mononuclear cells (PBMCs) were isolated from the blood of healthy donors using a standard density gradient (Histopaque-1077, Sigma) centrifugation. After incubation at 37° C. for 2 h, the nonadherent cells were collected and resuspended at 5×10^5/ml in RPMI medium 1640 containing 10% FBS, 5 μg of phytohemagglutinin (PHA)/ml, and 100 U of interleukin-2/ml, followed by incubation at 37° C. for 3 days. The PHA-stimulated cells were infected with the primary HIV-1 isolate at a multiplicity of infection (MOI) of 0.01 in the absence or presence of N-Fd peptides at graded concentrations. The supernatants were collected on the 7th day post-infection and tested for p24 antigen by ELISA.

[5] = test system: HIV-1IIIB-mediated cell-cell fusion
Protocol: Briefly, H9/HIV-1IIIB cells were pre-labeled with a fluorescent dye, Calcein AM (Molecular Probes, Inc., Eugene, Oreg.), and incubated with a testing compound at a graded concentration at 37° C. for 30 min in a 96-well cell culture plate. Then the CD4^+ MT-2 cells were added to the H9/HIV-1IIIB cells at a ratio of 10:1, followed by incubation at 37° C. for 2 hrs. The fused and unfused Calcein-labeled HIV-1-infected cells were counted under an inverted fluorescence microscope (Zeiss, Germany) with an eyepiece micrometer disc. The percent inhibition of cell fusion by a compound and the EC50 and EC90 values were calculated using the software CalcuSyn.

[6] = test system: HIV-1 Bal (subtype B, R5); assay type: cell-based
Protocol: The cells were harvested and lysed on the fourth day post-infection with 50p1 of lysing reagent. The luciferase activity was analyzed using a luciferase kit (Promega, Madison, Wis.) and a luminometer (Ultra 386) according to the manufacturer's instructions. The percent inhibition of luciferase activity was calculated.

HIV-1IIIB = experiment: Proteinase K digestion, remaining antiviral activity against HIV-1IIIB infection; conditions: 1 μU/ml Proteinase K in PBS, 37° C., 3 hrs
Protocol: as §2

[7] = test system: HIV-1NL4-3(36G) N42T/N43K; conditions: T20-resistant
Protocol: (§3) In brief, 1×10^4 MT-2 cells were infected with HIV-1IIIB in 200 μl RPMI 1640 medium containing 10% FBS in the presence or absence of testing compounds at graded concentrations overnight. Then the culture supernatants were removed and fresh media containing no testing compounds were added. On the fourth day post-infection, 100 μl of culture supernatants were collected from each well, mixed with equal volumes of 5% Triton X-100 and assayed for p24 antigen, which was quantitated by ELISA. Briefly, wells of polystyrene plates (Immulon 1B, Dynex Technology, Chantilly, Va.) were coated with HIV immunoglobulin (HIVIG), which was prepared from plasma of HIV-seropositive donors with high neutralizing titers against HIV-1IIIB, in 0.085 M carbonate-bicarbonate buffer (pH 9.6) at 4° C. overnight, followed by washes with washing buffer (0.01M PBS containing 0.05% Tween-20) and blocking with PBS containing 1% dry fat-free milk (Bio-Rad Inc., Hercules, Calif.). Virus lysates were added to the wells and incubated at 37° C. for 1 h. […] Reactions were terminated by addition of 1N H2SO4. Absorbance at 450 nm was recorded in an ELISA reader (Ultra 386, TECAN, Research Triangle Park, NC). Recombinant protein p24 purchased from US Biological (Swampscott, Mass.) was included for establishing standard dose response curves. Each sample was tested in triplicate. The percentage of inhibition of p24 production was calculated as previously described.
(§4) Mutations in the NHR region of HIV-1 virus NL4-3 cause genetic resistance to T20.

HIV-1NL4-3(36G) N42S = conditions: T20-sensitive
Protocol: as §3, §4

[8] = test system: HIV-1NL4-3(36G) V38E/N42S; conditions: T20-resistant
Protocol: as §3, §4

[9] = test system: HIV-1NL4-3(36G) V38A/N42D; conditions: T20-resistant
Protocol: as §3, §4

HIV-1-mediated fusion = conditions: background statement; cited from earlier work

T1 sequence (P06873 106-384): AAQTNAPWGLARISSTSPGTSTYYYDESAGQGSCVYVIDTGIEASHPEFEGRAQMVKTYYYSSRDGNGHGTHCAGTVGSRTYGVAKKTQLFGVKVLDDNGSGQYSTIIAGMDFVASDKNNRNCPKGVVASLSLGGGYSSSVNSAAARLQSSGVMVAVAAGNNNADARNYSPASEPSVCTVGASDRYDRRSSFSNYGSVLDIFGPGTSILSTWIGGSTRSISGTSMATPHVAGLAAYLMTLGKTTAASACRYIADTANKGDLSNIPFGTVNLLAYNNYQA
Chain of CHR-peptide C34 (P04578 628-661): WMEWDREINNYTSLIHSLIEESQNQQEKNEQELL

Compound | complex formation with C34 (CHR-peptide C34) | IC50 ([1]; 1IIIB (subtype B, X4)) | trimer stability in SDS-PAGE [2] | residual amount, % of original, detected by ELISA (Proteinase K; 3 hrs) | α-helicity of the N36 or N28 portion in N36Fd or N28Fd [3] | IC50 ([4]; PHA-stimulated PBMCs, p24 on day 7, read-out: IC50 against infection by HIV-1 93IN101) | fold more potent than the free N-peptide in inhibiting cell-cell fusion ([5]; N36Fd vs N36, N28Fd vs N28) | IC50 ([5]; read-out: IC50, inhibition of HIV-1-induced cell-cell fusion, H9/HIV-1IIIB + MT-2 cells, 2 hrs) | IC50 ([6]; TZM-bl cells, luciferase, read-out: IC50 against infection by HIV-1 Bal) | remaining antiviral activity against HIV-1IIIB infection, % of original (HIV-1IIIB) | IC50 [7] | IC50 (HIV-1NL4-3(36G) N42S) | IC50 [8] | IC50 [9] | IC50 ([1]; read-out: IC50, inhibition of HIV-1IIIB replication (p24), MT-2 cells, day 4 post-infection) | remaining at 3 h (Proteinase K; read-out: residual amount, % of original, detected by ELISA) | inhibition of HIV-1-mediated fusion (HIV-1-mediated fusion) | IC50 ([4]; 93IN101 (subtype C, R5, 2 h)) | IC50 ([6]; Bal (subtype B, R5))
CC[C@H](C)[C@H](N)C(=O)N[C@@H](CCC(=O)O)C(=O)N[C@@H](C)C(=O)N[C@@H](CCC(N)=O)C(=O)N[C@@H](CCC(N)=O)C(=O)N[C@@H](Cc1c[nH]cn1)C(=O)N[C@@H](CC(C)C)C(=O)N[C@@H](CC(C)C)C(=O)N[C@@H](CCC(N)=O)C(=O)N[C@@H](CC(C)C)C(=O)N[C@H](C(=O)N[C@H](C(=O)N[C@@H](Cc1c[nH]c2ccccc12)C(=O)NCC(=O)N[C@H](C(=O)N[C@@H](CCCCN)C(=O)N[C@@H](CCC(N)=O)C(=O)N[C@@H](CC(C)C)C(=O)N[C@@H](CCC(N)=O)C(=O)N[C@@H](C)C(=O)N[C@@H](CCCNC(=N)N)C(=O)N[C@H](C(=O)N[C@@H](CC(C)C)C(=O)N[C@@H](C)C(=O)N[C@H](C(=O)N[C@@H](CCC(=O)O)C(=O)N[C@@H](CCCNC(=N)N)C(=O)N[C@@H](Cc1ccc(O)cc1)C(=O)O)C(C)C)[C@@H](C)CC)[C@@H](C)CC)C(C)C)[C@@H](C)O [N28] (H-IEAQQHLLQLTVWGIKQLQARILAVERY-OH; N-terminus and C-terminus assumed) | could not form a complex with C34 | > 3 µM | – | – | – | – | – | – | – | – | – | – | – | – | – | – | – | – | –
IEAQQHLLQLTVWGIKQLQARILAVERYGYIPEAPRDGQAYVRKDGEWVLLSTFL [N28Fd] | – | – | SDS-resistant but heat-sensitive trimer; also recorded: more stable than N36Fd under SDS conditions | 84% | 30.9% | 0.00127 µM | > 138 fold | 0.021 µM | 0.0098 µM | 97% | 0.0306 ± 0.00607 µM | 0.02695 ± 2e-05 µM | 0.0464 ± 0.00449 µM | 0.029 ± 0.00082 µM | 0.039 µM | – | – | – | –
enfuvirtide | – | – | – | – | – | – | – | – | – | completely lost its anti-HIV-1 activity | 0.374 µM | 0.03 µM | 1.39 µM | 2.3 µM | – | 17% | low nanomolar level | 0.00175 µM | 0.0034 µM
